# Laboratory results reported in ChEMBL document CHEMBL3632493, “Design, synthesis and anticancer mechanistic studies of linked azoles” (Medchemcomm, 2015).
# Active and inactive are the calls of the source. The calls are words filed in the database; no cut-off is given here.
# What was measured:
# [1] = test system: HCT-116; assay: Induction of apoptosis in human HCT116 cells at 30 uM after 30 hrs by annexin-V/7-AAD staining based flow cytometry; assay type: functional
# [2] = test system: HCT-116; assay: Induction of DNA damage in human HCT116 cells at G0/G1 phase at 30 uM after 24 hrs by gamma-H2AX-staining based-flow cytometry; assay type: functional, cell-based
# [3] = test system: HCT-116; assay: Anticancer activity against human HCT116 cells assessed as growth inhibition at 50 uM by CCK-8 assay; assay type: functional
# [4] = test system: HCT-116; assay: Anticancer activity against human HCT116 cells assessed as growth inhibition by CCK-8 assay; assay type: functional, cell-based
# [5] = test system: HCT-116; assay: Decrease in mitotic index in human HCT116 cells at 100 nM after 20 and 24 hrs by flow cytometry; assay type: functional, cell-based
# [6] = test system: HCT-116; assay: Induction of DNA damage in human HCT116 cells at G0/G1 phase at 100 nM after 24 hrs by gamma-H2AX-staining based-flow cytometry; assay type: functional, cell-based
# [7] = test system: HCT-116; assay: Induction of DNA damage in human HCT116 cells at G0/G1 phase at 20 nM after 24 hrs by gamma-H2AX-staining based-flow cytometry; assay type: functional, cell-based
# [8] = test system: HCT-116; assay: Increase in mitotic index in human HCT116 cells at 20 nM after 20 and 24 hrs by flow cytometry; assay type: functional, cell-based
# [9] = test system: HCT-116; assay: Induction of DNA damage in human HCT116 cells at G0/G1 phase at 20 and 30 uM after 24 hrs by gamma-H2AX-staining based-flow cytometry; assay type: functional, cell-based
# [10] = test system: HCT-116; assay: Cell cycle arrest in human HCT116 cells assessed as decrease in number of cells at G0/G1 phase at 20 and 30 uM after 20 hrs by propidium-iodide staining based flow cytometry; assay type: functional
# [11] = test system: HCT-116; assay: Decrease in mitotic index in human HCT116 cells after 20 and 24 hrs by flow cytometry; assay type: functional, cell-based
# [12] = test system: HCT-116; assay: Cell cycle arrest in human HCT116 cells assessed as increase in number of cells at G2/M phase at 20 and 30 uM after 20 hrs by propidium-iodide staining based flow cytometry; assay type: functional
# [13] = test system: HCT-116; assay: Decrease in mitotic index in human HCT116 cells at 30 and 50 uM by flow cytometry; assay type: functional, cell-based; details: TDE = time-dependent effect
# [14] = test system: HCT-116; assay: Cell cycle arrest in human HCT116 cells assessed as decrease in number of cells at S phase at 20 and 30 uM after 20 hrs by propidium-iodide staining based flow cytometry; assay type: functional
smiles,measurement,setting,value
C[C@@H](NC(=O)OC(C)(C)C)c1nc(-c2nc(-c3nc(C(N)=O)cs3)cs2)cs1,Activity,[1],30%
same,Activity,[2],Active
same,inhibition at 50 µM,[3],70%
same,IC50,[4],22.4 µM
COc1cccc2c1C(=O)c1c(O)c3c(c(O)c1C2=O)C[C@@](O)(C(=O)CO)C[C@@H]3O[C@H]1C[C@H](N)[C@H](O)[C@H](C)O1,inhibition,[5],Active
same,Activity,[6],Active
CCOC(=O)c1csc(-c2csc(-c3csc([C@@H](C)NC(=O)OC(C)(C)C)n3)n2)n1,inhibition,[3],Active
CC(=O)O[C@H]1C(=O)[C@@]2(C)[C@H]([C@H](OC(=O)c3ccccc3)[C@]3(O)C[C@H](OC(=O)[C@H](O)[C@@H](NC(=O)c4ccccc4)c4ccccc4)C(C)=C1C3(C)C)[C@]1(OC(C)=O)CO[C@@H]1C[C@@H]2O,Activity,[7],Active
same,Activity,[8],Active
CCOC(=O)c1csc(-c2csc(-c3csc([C@H](C)NC(=O)OC(C)(C)C)n3)n2)n1,inhibition,[3],Active
C[C@H](NC(=O)OC(C)(C)C)c1nc(-c2nc(-c3nc(C(N)=O)cs3)cs2)cs1,Activity,[1],60%
same,Activity,[9],Active
same,Activity,[10],Active
same,inhibition,[11],Dose-dependent effect
same,Activity,[12],Active
same,inhibition,[13],tde
same,Activity,[14],Active
same,inhibition at 50 µM,[3],70%
same,IC50,[4],7.6 µM
C[C@H](NC(=O)OC(C)(C)C)c1nc(-c2nc(-c3nc(C(N)=S)cs3)cs2)cs1,inhibition at 50 µM,[3],70%
same,IC50,[4],38.1 µM
C[C@@H](NC(=O)OC(C)(C)C)c1nc(-c2nc(-c3nc(C(N)=S)cs3)cs2)cs1,inhibition at 50 µM,[3],70%
same,IC50,[4],45.2 µM
